Assay results as given in ChEMBL document CHEMBL1201862, “PubChem BioAssay data set” (2004).
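Each compound was tested at five concentrations against cells in 96-well plates for 48 hours. The concentration for 50% growth inhibition is given as GI50.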 The source made the active and inactive calls. Rule as the data show it: active = GI50 up to about 1.1 µM and inactive = higher.

Columns and labels:
Experiment in all cases: NCI anticancer screen, dose series, 48 h
HL-60 = system: HL-60
SF-295 = system: SF-295
K562 = system: K562
EKVX = system: EKVX
SF-268 = system: SF-268
HCC 2998 = system: HCC 2998
SK-MEL-2 = system: SK-MEL-2
MOLT-4 = system: MOLT-4
OVCAR-8 = system: OVCAR-8
PC-3 = system: PC-3
TK-10 = system: TK-10
U-251 = system: U-251
DU-145 = system: DU-145
HT-29 = system: HT-29
NCI-H460 = system: NCI-H460
SN12C = system: SN12C
M14 = system: M14
RPMI-8226 = system: RPMI-8226
HOP-62 = system: HOP-62
RXF 393 = system: RXF 393

SMILES	GI50 (HL-60)	GI50 (SF-295)	GI50 (K562)	GI50 (EKVX)	GI50 (SF-268)	GI50 (HCC 2998)	GI50 (SK-MEL-2)	GI50 (MOLT-4)	GI50 (OVCAR-8)	GI50 (PC-3)	GI50 (TK-10)	GI50 (U-251)	GI50 (DU-145)	GI50 (HT-29)	GI50 (NCI-H460)	GI50 (SN12C)	GI50 (M14)	GI50 (RPMI-8226)	GI50 (HOP-62)	GI50 (RXF 393)
COC1=CC23CCCN2CCc2cc4c(cc2C3C1O)OCO4 (stereo not drawn)	25.8 µM (inactive)	36.1 µM (inactive)	> 10 µM (inactive)	52.5 µM (inactive)	50.2 µM (inactive)	70.3 µM (inactive)	54.2 µM (inactive)	66.7 µM (inactive)	> 100 µM (inactive)	59.3 µM (inactive)	> 100 µM (inactive)	> 100 µM (inactive)	43 µM (inactive)	39.4 µM (inactive)	36 µM (inactive)	57.5 µM (inactive)	> 100 µM (inactive)	–	–	–
CCN(CC)CCn1ncc2c(N)ncnc21	–	> 100 µM (inactive)	> 100 µM (inactive)	> 100 µM (inactive)	> 100 µM (inactive)	> 100 µM (inactive)	> 100 µM (inactive)	> 100 µM (inactive)	> 100 µM (inactive)	> 100 µM (inactive)	> 100 µM (inactive)	> 100 µM (inactive)	> 100 µM (inactive)	> 100 µM (inactive)	> 100 µM (inactive)	> 100 µM (inactive)	> 100 µM (inactive)	> 100 µM (inactive)	> 100 µM (inactive)	> 100 µM (inactive)
CC(CCCC1SCC2NC(=O)NC21)C(=O)O (stereo not drawn)	> 100 µM (inactive)	> 100 µM (inactive)	> 100 µM (inactive)	> 100 µM (inactive)	> 100 µM (inactive)	–	> 100 µM (inactive)	> 100 µM (inactive)	> 100 µM (inactive)	> 100 µM (inactive)	> 100 µM (inactive)	> 100 µM (inactive)	> 100 µM (inactive)	> 100 µM (inactive)	> 100 µM (inactive)	> 100 µM (inactive)	> 100 µM (inactive)	> 100 µM (inactive)	> 100 µM (inactive)	> 100 µM (inactive)
CCOC(=O)/C=C(/C(=O)OCC)n1ccc(=O)n(Cc2cn(CCCCOC(C)=O)nn2)c1=O	–	> 100 µM (inactive)	55 µM (inactive)	> 100 µM (inactive)	> 100 µM (inactive)	> 100 µM (inactive)	> 100 µM (inactive)	50.2 µM (inactive)	> 100 µM (inactive)	> 100 µM (inactive)	58.2 µM (inactive)	> 100 µM (inactive)	> 100 µM (inactive)	> 100 µM (inactive)	> 100 µM (inactive)	> 100 µM (inactive)	–	89.3 µM (inactive)	> 100 µM (inactive)	> 100 µM (inactive)
CC(CO)(CO)N1C(=O)C2C3c4ccccc4C(c4ccccc43)C2C1=O (stereo not drawn)	> 100 µM (inactive)	> 100 µM (inactive)	> 100 µM (inactive)	–	> 100 µM (inactive)	> 100 µM (inactive)	> 100 µM (inactive)	> 100 µM (inactive)	> 100 µM (inactive)	> 100 µM (inactive)	> 100 µM (inactive)	> 100 µM (inactive)	50.4 µM (inactive)	> 100 µM (inactive)	> 100 µM (inactive)	> 100 µM (inactive)	> 100 µM (inactive)	–	> 100 µM (inactive)	–
Cc1ccccc1NC(=O)C(=O)Cc1cnc2ccccc2n1	> 100 µM (inactive)	> 100 µM (inactive)	> 100 µM (inactive)	> 100 µM (inactive)	> 100 µM (inactive)	> 100 µM (inactive)	> 100 µM (inactive)	> 100 µM (inactive)	> 100 µM (inactive)	> 100 µM (inactive)	> 100 µM (inactive)	> 100 µM (inactive)	> 100 µM (inactive)	> 100 µM (inactive)	> 100 µM (inactive)	> 100 µM (inactive)	> 100 µM (inactive)	> 100 µM (inactive)	–	–
C[C@]12CCC(=O)C=C1CC[C@@H]1C2CC[C@]2(C)c3nn(-c4ccc(F)cc4)nc3CC12 (stereo partly drawn)	> 100 µM (inactive)	69.8 µM (inactive)	> 100 µM (inactive)	> 100 µM (inactive)	> 100 µM (inactive)	> 100 µM (inactive)	–	> 100 µM (inactive)	> 100 µM (inactive)	> 100 µM (inactive)	> 100 µM (inactive)	53.2 µM (inactive)	> 100 µM (inactive)	> 100 µM (inactive)	> 100 µM (inactive)	> 100 µM (inactive)	> 100 µM (inactive)	–	76.2 µM (inactive)	67.3 µM (inactive)
N#CC(C#N)=C1SC(=N\c2ccccc2)/C(=N/c2ccccc2)N1c1ccccc1	–	25.2 µM (inactive)	2.3 µM (inactive)	36.6 µM (inactive)	19.3 µM (inactive)	15.2 µM (inactive)	5.19 µM (inactive)	2.24 µM (inactive)	22.6 µM (inactive)	7.6 µM (inactive)	44.1 µM (inactive)	15.6 µM (inactive)	42.9 µM (inactive)	24.2 µM (inactive)	19.2 µM (inactive)	23.9 µM (inactive)	25.3 µM (inactive)	5.75 µM (inactive)	27.7 µM (inactive)	11 µM (inactive)
Cc1cc2c(c(C(=O)NCC(=O)O)c1)Oc1c(cc(C)cc1C(=O)NCC(=O)O)S2	–	> 100 µM (inactive)	> 100 µM (inactive)	> 100 µM (inactive)	> 100 µM (inactive)	> 100 µM (inactive)	> 100 µM (inactive)	> 100 µM (inactive)	> 100 µM (inactive)	> 100 µM (inactive)	> 100 µM (inactive)	> 100 µM (inactive)	> 100 µM (inactive)	> 100 µM (inactive)	–	> 100 µM (inactive)	> 100 µM (inactive)	> 100 µM (inactive)	> 100 µM (inactive)	> 100 µM (inactive)
O=C(Cn1c2ccc(Br)cc2c2nc3ccccc3nc21)NC1CCCCC1	–	> 100 µM (inactive)	> 100 µM (inactive)	–	> 100 µM (inactive)	> 100 µM (inactive)	> 100 µM (inactive)	> 100 µM (inactive)	> 100 µM (inactive)	> 100 µM (inactive)	> 100 µM (inactive)	> 100 µM (inactive)	> 100 µM (inactive)	> 100 µM (inactive)	> 100 µM (inactive)	> 100 µM (inactive)	> 100 µM (inactive)	> 100 µM (inactive)	> 100 µM (inactive)	> 100 µM (inactive)
Clc1nc(NCCc2ccccc2)c2ncn(-c3ccccc3)c2n1	–	25.3 µM (inactive)	25.5 µM (inactive)	22.5 µM (inactive)	36.5 µM (inactive)	17.1 µM (inactive)	1.83 µM (inactive)	22 µM (inactive)	28.4 µM (inactive)	16.1 µM (inactive)	21.1 µM (inactive)	16.2 µM (inactive)	25.2 µM (inactive)	16.2 µM (inactive)	15.3 µM (inactive)	27.5 µM (inactive)	21.5 µM (inactive)	18.5 µM (inactive)	20.6 µM (inactive)	24.8 µM (inactive)
C=C(C)CCN(C(=O)OC(C)(C)C)c1cc(C(C)C)co1	11.8 µM (inactive)	51.4 µM (inactive)	34.5 µM (inactive)	45.1 µM (inactive)	0.344 µM (active)	52 µM (inactive)	28.5 µM (inactive)	30.3 µM (inactive)	37.5 µM (inactive)	22.4 µM (inactive)	> 100 µM (inactive)	26.7 µM (inactive)	45 µM (inactive)	45.3 µM (inactive)	–	> 100 µM (inactive)	> 100 µM (inactive)	20.2 µM (inactive)	> 100 µM (inactive)	–
N#Cc1nc(CN2C(=O)c3ccccc3C2=O)oc1N	–	> 100 µM (inactive)	> 100 µM (inactive)	–	> 100 µM (inactive)	> 100 µM (inactive)	> 100 µM (inactive)	> 100 µM (inactive)	> 100 µM (inactive)	> 100 µM (inactive)	> 100 µM (inactive)	> 100 µM (inactive)	> 100 µM (inactive)	> 100 µM (inactive)	> 100 µM (inactive)	> 100 µM (inactive)	> 100 µM (inactive)	> 100 µM (inactive)	> 100 µM (inactive)	> 100 µM (inactive)
Cc1cc(N(CCC#N)CCC#N)ccc1C(/N=N/c1ccc(C(=O)O)cc1)=N\NC(=O)c1ccccc1	–	23.9 µM (inactive)	12.7 µM (inactive)	> 100 µM (inactive)	53.8 µM (inactive)	17.3 µM (inactive)	> 100 µM (inactive)	47.1 µM (inactive)	28.1 µM (inactive)	26.1 µM (inactive)	> 100 µM (inactive)	34.8 µM (inactive)	71.4 µM (inactive)	17.3 µM (inactive)	22.9 µM (inactive)	47.3 µM (inactive)	36.6 µM (inactive)	> 100 µM (inactive)	32.4 µM (inactive)	17.7 µM (inactive)
O=C1Cc2c([nH]c3ccc(C(=O)O)cc23)-c2ccccc2N1	37.5 µM (inactive)	> 100 µM (inactive)	> 100 µM (inactive)	–	> 100 µM (inactive)	> 100 µM (inactive)	> 100 µM (inactive)	> 100 µM (inactive)	> 100 µM (inactive)	> 100 µM (inactive)	> 100 µM (inactive)	> 100 µM (inactive)	> 100 µM (inactive)	84.9 µM (inactive)	> 100 µM (inactive)	> 100 µM (inactive)	> 100 µM (inactive)	> 100 µM (inactive)	> 100 µM (inactive)	–
